Data on 4 compounds can be found in patent US20240239854A1, “ANTIMICROBIAL PEPTIDES AND MODIFICATIONS THEREOF” (Donald Danforth Plant Science Center, priority 2022, published 2024).

Test [1] concerns P. capsici. Kind of test: In planta assay on tomato leaves (Example 1). Particulars: applied on tomato leaves. The class given is in vivo. The source says: Antifungal activity in planta.
In another test the test system is Candida glabrata. The test can be described thus: Antifungal MIC in RPMI medium. The following applies: RPMI medium rich in cations.
Another test relates to Candida albicans. Kind of test: MIC, CLSI M27/M38, half-strength potato dextrose broth (Example 2). It counts as cell-based. The following applies: Table 8.
The test system of test [2] is Listeria monocytogens (F5244). The test can be described thus: Antibacterial growth inhibition in Mueller-Hinton media, OD600 (Example 3). The class given is cell-based. The following applies: Table 15; L. monocytogenes F5244; MH medium.
Test [3] has as its system F. oxysporum. The test can be described thus: Antifungal MIC assay in SFM culture media (Example 1). The class given is cell-based.
Test [4] deals with Candida auris. Kind of test: MIC, CLSI M27/M38, half-strength potato dextrose broth (Example 2). It counts as cell-based. The following applies: Table 8.
The subject of the next test is C. parapsilosis. Described as above. It counts as cell-based, Candida parapsilosis. Particulars: Table 8; C. parapsilosis ATCC 22019. The procedure:
(§1) MICs were determined at 24-72 hours.

Another test relates to Aspergillus fumigatus. The description is as above. Particulars: for MIC (μg/ml) 100%: Table 8, Aspergillus fumigatus AF293. The class given is cell-based.
For another test, the system named is B. cinerea. The following applies: B. cinerea; for Antifungal activity relative to the wild-type GMA4C_AC control: in vitro, low cationic conditions.
The next test deals with F. graminearum. The following applies: in vitro, low cationic conditions; F. graminearum.
Test [5] concerns Salmonella Typhimurium var. Copenhagen. Kind of test: Antibacterial growth inhibition in Mueller-Hinton media, OD600 (Example 3). It counts as cell-based. The following applies: Table 15; S. Typhimurium var. Copenhagen; MH medium.
The test system of another test is Coccidioides sp. The class given is cell-based. The following applies: Table 8.
The subject of test [6] is P. capsici. The test can be described thus: Antifungal MIC assay in SFM culture media (Example 1). The class given is cell-based. The following applies: in vitro, low cationic conditions.
Test [7] concerns Candida auris. The test can be described thus: Antifungal MIC in RPMI medium. The following applies: RPMI medium rich in cations.
For test [8], the system named is Enterotoxigenic E. coli-F4. The test can be described thus: Antibacterial growth inhibition in Mueller-Hinton media, OD600 (Example 3). The class given is cell-based. Particulars: Table 15, MH medium. Here is the method:
Salmonella Typhimurium var. Copenhagen, Enterotoxigenic E. coli-F4 and Listeria monocytogens (F5244) strains were grown overnight on an LB agar plate at 37_C. A small number of bacteria was scraped from the plate and added to Mueller-Hinton (MH) growth media and grown to log phase. Cells were diluted to 1-3×10^6 CFU/mL and 50 μl were added to each well in a polypropylene 96-well plate. Synthesized peptide GMA4C_V1A was diluted into 0.2% BSA, 0.0100 acetic acid solution and added to the concentration of 0.2, 0.4, 0.80, 1.6, 3.25, 7.5, 15, 30 and 60 and 120 μM. Then, 50 μl of each peptide solution was added to 50 μl of bacterial cells. Plates were parafilmed and incubated at 37° C. overnight. The concentrations at which bacterial growth inhibition was determined based on the OD600 nm value at each concentration relative to the OD600 nm value of MH medium alone and that of bacterial growth in MH medium without any peptide.

A further test relates to F. solani. The test can be described thus: MIC, CLSI M27/M38, half-strength potato dextrose broth (Example 2). The class given is cell-based. The following applies: Table 8; Fusarium F4 (F. solani). The procedure: as §1
The subject of test [9] is F. oxysporum. The test is described as above. It counts as cell-based. Particulars: Table 8. The procedure: as §1
In a further test the test system is Tricophyton rubrum. The test can be described thus: MIC against human nail pathogens (Example 2). It counts as cell-based. Particulars: Table 13.
The test system of test [10] is Tricophyton metagrophytes. The test can be described thus: MIC against human nail pathogens (Example 2). It counts as cell-based. Particulars: Table 13.
The test system of test [11] is Fusarium graminearum PH-1. The class given is cell-based. The following applies: MIC Day 1; 96-well plate, resazurin cell viability. On the technique in general: Alamar Blue is a resazurin reagent that responds to reducing activity.
A further test relates to Z. tritici. Kind of test: Wheat - Zymoseptoria tritici in planta spray assay, curative. It counts as in vivo. The following applies: wheat plants; 48 μM spray 24 hours after Z. tritici spores; 21 dpi.
A further test deals with Botrytis cinerea T4. It counts as cell-based.
Test [12] has as its system Zymoseptoria tritici IPO323. The class given is cell-based.

≈ marks a conversion by molar mass, not a printed value. Where two headings read alike, the source gives them in different places. Residues, ends and D or L forms follow the SMILES beside them. No end group written: not given here.

With `CC[C@H](C)[C@H](NC(=O)[C@H](CCCNC(=N)N)NC(=O)[C@@H](NC(=O)[C@H](CS)NC(=O)[C@H](Cc1ccccc1)NC(=O)[C@H](CS)NC(=O)[C@H](CCCNC(=N)N)NC(=O)[C@H](CCCNC(=N)N)NC(=O)[C@H](CCCNC(=N)N)NC(=O)[C@H](Cc1ccccc1)NC(=O)CNC(=O)[C@H](CCCCN)NC(=O)[C@H](CS)NC(=O)[C@H](CCCNC(=N)N)NC(=O)CNC(=O)CN)[C@@H](C)O)C(=O)N[C@@H](CS)C(N)=O` [GMA4C_V1A] (H-GGRCKGFRRRCFCTRIC-NH2; N-terminus assumed), the “Reduction of disease symptoms caused by P. capsici” value in the test on P. capsici [1] was “more effective”. Also, the “Antifungal activity against C. glabrata” value in the test with Candida glabrata is listed as “show antifungal activity”. In addition, the “MIC (μg/ml) 100%” value against Candida albicans (Candida albicans ATCC 90028), with Candida albicans (Candida albicans CA3), against Candida albicans (Candida albicans SC5314), against Candida auris [4] (Candida auris DI17-46), with Candida auris [4] (Candida auris DI17-47) and with Candida auris [4] (Candida auris DI17-48) was 8 µg/mL (≈ 3.96 µM) in each case. Also, the “MIC (μg/ml) 100%” value in the test on C. parapsilosis was determined as 4 µg/mL (≈ 1.98 µM); in the test on Aspergillus fumigatus it was 32 µg/mL (≈ 15.9 µM); in the test on Coccidioides sp. (Coccidioides sp. Cocci 1), 8 µg/mL (≈ 3.96 µM); against Coccidioides sp. (Coccidioides sp. Cocci2), 4 µg/mL (≈ 1.98 µM); in the test with Coccidioides sp. (Coccidioides sp. DI17-143) it was 8 µg/mL (≈ 3.96 µM). The “Concentrations at which growth inhibition was observed” value in test [2] is 15 to 30 µM; in [5], 15 to 60 µM; in [8], 7.5 to 60 µM. Besides, the “F. oxysporum MIC” value in the test on F. oxysporum [3] (Table 2, SFM culture media) turned out to be 6 μuM. Also, the “Antifungal activity relative to the wild-type GMA4C_AC control” value is on record as “equivalent” in the test with F. oxysporum [3] (in vitro, low cationic conditions, F. oxysporum); “equivalent” with B. cinerea; “equivalent” in the test on F. graminearum; “equivalent” in the test on P. capsici [6]. Besides, in the test on B. cinerea (100 mM NaCl or 100 mM KCl), the “Potency relative to GMA4C_AC in presence of cations” value is 2 fold. The “Fungal growth inhibition at 6 μM” value in the test with B. cinerea (in presence of 2 mM CaCl2, peptide 6 μM) is “inhibit fungal growth”. Besides, the “Antifungal activity against C. auris” value in the test on Candida auris [7] is recorded as “show antifungal activity”.

As to `CC[C@H](C)[C@H](NC(=O)[C@H](CCCNC(=N)N)NC(=O)[C@@H](NC(=O)[C@H](CS)NC(=O)[C@H](Cc1ccccc1)NC(=O)[C@H](CS)NC(=O)[C@H](CCCNC(=N)N)NC(=O)[C@H](CCCNC(=N)N)NC(=O)[C@H](CCCNC(=N)N)NC(=O)[C@H](Cc1ccccc1)NC(=O)CNC(=O)[C@H](CCCNC(=N)N)NC(=O)[C@H](CS)NC(=O)[C@H](CCCNC(=N)N)NC(=O)CNC(=O)CN)[C@@H](C)O)C(=O)N[C@@H](CS)C(N)=O` [GMA4C_V2A] (H-GGRCRGFRRRCFCTRIC-NH2; N-terminus assumed), the “MIC (μg/ml) 100%” value in the test on Candida albicans (Candida albicans ATCC 90028), against Candida albicans (Candida albicans CA3), with Candida albicans (Candida albicans SC5314), against Candida auris [4] (Candida auris DI17-46), against Candida auris [4] (Candida auris DI17-47) and with Candida auris [4] (Candida auris DI17-48) was 16 µg/mL (≈ 7.82 µM) throughout. Further, the “MIC (μg/ml) 100%” value stood at 8 µg/mL (≈ 3.91 µM) in the test on C. parapsilosis; 32 µg/mL (≈ 15.6 µM) against Aspergillus fumigatus; 8 µg/mL (≈ 3.91 µM) against F. solani; 8 µg/mL (≈ 3.91 µM) in the test on F. oxysporum [9] (Fusarium F1 (F. oxysporum)); 16 µg/mL (≈ 7.82 µM) in the test on F. oxysporum [9] (Fusarium F2 (F. oxysporum)); 8 µg/mL (≈ 3.91 µM) in the test with Coccidioides sp. (Coccidioides sp. Cocci 1). Further, the “MIC (μg/ml) 100%” value against Coccidioides sp. (Coccidioides sp. Cocci2) and against Coccidioides sp. (Coccidioides sp. DI17-143) was 16 µg/mL (≈ 7.82 µM) throughout. The “Antifungal activity relative to the wild-type GMA4C_AC control” value with B. cinerea and in the test on F. graminearum was “two-fold reduction” each time.

For “OeDef1_V3: OeDef1 variant of Table 13, printed with SEQ ID NO: 769, the number of GMAOe1C_V3 (GACLKNRHSKHYGWFWYYRHCY; not fully specified (C-terminus); cysteine pairing not given here)”, the “MIC Tricophyton rubrum (23014)” value in the test with Tricophyton rubrum was found to be 4.0 µM. Moreover, the “MIC Aspergillus fumigatus (36843)” value in the test on Aspergillus fumigatus (Table 13) is above 7.9 µM. For the same compound, the “MIC Tricophyton metagrophytes (26103)” value in [10] was determined as 4.0 µM.

In the case of “PD101.1.1: Nicotiana sylvestris wild-type defensin SEQ ID NO: 624 with an N-terminal alanine, expressed in Pichia pastoris (KLCRRRSKTFSSSCFISEHCDKECKEKEGAKRGMCIKKSIFGRFCYCFHKCK; N-terminal alanine; listed as Nicotiana sylvestris)”, the “F. graminearum PH-1 MIC Day1” value in [11] came out at 1.5 µM. The “Curative protection against Septoria tritici blotch (STB)” value in the test on Z. tritici is “reduction of STB disease symptoms”. In the test with Botrytis cinerea T4, the “B. cinerea T4 MIC Day1” value was found to be 1.5 µM. In [12], the “MIC against Z. tritici on day 1” value stood at 0.75 µM, the “MIC against Z. tritici on day 7” value was 1.5 µM, the “MIC against Z. tritici on day 14” value is 1.5 µM and the “Z. tritici IPO323 MIC Day 1” value amounted to 0.75 µM. Moreover, in test [12], the “Z. tritici IPO323 MIC Day 7” value came out at 1.5 µM and the “Z. tritici IPO323 MIC Day 14” value came out at 1.5 µM.
